Assay results taken from PubChem BioAssay (NCI).
Several values for one entry are separate records, joined by “and”; a condition that tells them apart may be missing. Equal values may be shown once.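 Step 1: Grow cells in 96-well plates. Step 2: Expose to compound for 48 hours at 5 concentrations. Step 3: Interpolate endpoints linearly; if unreached, use highest concentration. GI50 = concentration required for 50% inhibition of growth. TGI: concentration producing complete growth inhibition.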

Legend:
Assay in all cases: NCI-60 cell line screen, 48 h
SNB-19 CNS = test system: SNB-19 CNS
M14 melanoma = test system: M14 melanoma
A498 renal = test system: A498 renal
SK-MEL-2 melanoma = test system: SK-MEL-2 melanoma
UACC-62 melanoma = test system: UACC-62 melanoma
NCI-H226 lung = test system: NCI-H226 lung
HT29 colon = test system: HT29 colon
OVCAR-5 ovarian = test system: OVCAR-5 ovarian
UACC-257 melanoma = test system: UACC-257 melanoma
SF-539 CNS = test system: SF-539 CNS
IGROV1 ovarian = test system: IGROV1 ovarian
UO-31 renal = test system: UO-31 renal
SK-OV-3 ovarian = test system: SK-OV-3 ovarian
KM12 colon = test system: KM12 colon
SK-MEL-28 melanoma = test system: SK-MEL-28 melanoma
SK-MEL-5 melanoma = test system: SK-MEL-5 melanoma
EKVX NSCLC = test system: EKVX NSCLC
COLO 205 colon = test system: COLO 205 colon
NCI-H522 lung = test system: NCI-H522 lung
NCI-H23 lung = test system: NCI-H23 lung
DU-145 prostate = test system: DU-145 prostate
HL-60(TB) leukemia = test system: HL-60(TB) leukemia
SW-620 colon = test system: SW-620 colon
SF-295 CNS = test system: SF-295 CNS
ACHN renal = test system: ACHN renal
T-47D breast = test system: T-47D breast
MDA-MB-435 = test system: MDA-MB-435
TK-10 renal = test system: TK-10 renal
MDA-MB-231 breast = test system: MDA-MB-231 breast
NCI/ADR-RES ovarian = test system: NCI/ADR-RES ovarian
SN12C renal = test system: SN12C renal
MOLT-4 leukemia = test system: MOLT-4 leukemia
LOX IMVI melanoma = test system: LOX IMVI melanoma
A549 NSCLC = test system: A549 NSCLC
OVCAR-4 ovarian = test system: OVCAR-4 ovarian
SNB-75 CNS = test system: SNB-75 CNS
HOP-62 NSCLC = test system: HOP-62 NSCLC
CCRF-CEM leukemia = test system: CCRF-CEM leukemia
HCT-15 colon = test system: HCT-15 colon
MALME-3M melanoma = test system: MALME-3M melanoma
HCT-116 colon = test system: HCT-116 colon
OVCAR-3 ovarian = test system: OVCAR-3 ovarian
PC-3 prostate = test system: PC-3 prostate
786-0 renal = test system: 786-0 renal
HCC-2998 colon = test system: HCC-2998 colon
SR leukemia = test system: SR leukemia
CAKI-1 renal = test system: CAKI-1 renal
SF-268 CNS = test system: SF-268 CNS
HS 578T breast = test system: HS 578T breast
BT-549 breast = test system: BT-549 breast
U251 CNS = test system: U251 CNS
RXF 393 renal = test system: RXF 393 renal
NCI-H460 lung = test system: NCI-H460 lung
OVCAR-8 ovarian = test system: OVCAR-8 ovarian
RPMI-8226 leukemia = test system: RPMI-8226 leukemia
HOP-92 NSCLC = test system: HOP-92 NSCLC
MCF7 breast = test system: MCF7 breast

## Cc1ccc(C(=O)Nc2ccc(CN3CCN(C)CC3)c(C(F)(F)F)c2)cc1C#Cc1cnc2cccnn12
SNB-19 CNS
  GI50: 973 nM and 2700 nM
  TGI: 2280 nM and 4670 nM
M14 melanoma
  GI50: 162 nM and 351 nM
  TGI: 737 nM and 3420 nM
A498 renal
  GI50: 299 nM and 470 nM
  TGI: 1070 nM and 1850 nM
SK-MEL-2 melanoma
  GI50: 217 nM and 492 nM
  TGI: 579 nM and 1430 nM
UACC-62 melanoma
  GI50: 306 nM and 1060 nM
  TGI: 1520 nM
NCI-H226 lung
  GI50: 298 nM
  TGI: 4410 nM
HT29 colon
  GI50: 300 nM and 469 nM
  TGI: 1290 nM and 3420 nM
OVCAR-5 ovarian
  GI50: 410 nM and 808 nM
  TGI: 1640 nM and 4690 nM
UACC-257 melanoma
  GI50: 536 nM and 1560 nM
  TGI: 2040 nM and 4390 nM
SF-539 CNS
  GI50: 255 nM and 669 nM
  TGI: 722 nM and 2180 nM
IGROV1 ovarian
  GI50: 272 nM and 269 nM
  TGI: 1280 nM and 1810 nM
UO-31 renal
  GI50: 340 nM and 349 nM
  TGI: 1520 nM and 3190 nM
SK-OV-3 ovarian
  GI50: 342 nM and 1160 nM
  TGI: 1220 nM and 3740 nM
KM12 colon
  GI50: 45.5 nM and 131 nM
  TGI: 1220 nM and 3720 nM
SK-MEL-28 melanoma
  GI50: 367 nM and 742 nM
  TGI: 1510 nM and 3700 nM
SK-MEL-5 melanoma
  GI50: 790 nM and 2740 nM
  TGI: 2040 nM and 4660 nM
EKVX NSCLC
  GI50: 635 nM and 1790 nM
  TGI: 2270 nM and 5140 nM
COLO 205 colon
  GI50: 328 nM and 879 nM
  TGI: 1240 nM and 3010 nM
NCI-H522 lung
  GI50: 319 nM and 538 nM
  TGI: 1280 nM and 3260 nM
NCI-H23 lung
  GI50: 964 nM
  TGI: 4150 nM
DU-145 prostate
  GI50: 423 nM and 712 nM
  TGI: 1570 nM and 3720 nM
HL-60(TB) leukemia
  GI50: 422 nM and 440 nM
  TGI: 1580 nM and 3880 nM
SW-620 colon
  GI50: 283 nM and 594 nM
  TGI: 1520 nM and 4120 nM
SF-295 CNS
  GI50: 327 nM and 1260 nM
  TGI: 1750 nM and 4270 nM
ACHN renal
  GI50: 191 nM and 322 nM
  TGI: 1090 nM and 3240 nM
T-47D breast
  GI50: 540 nM and 1680 nM
  TGI: 2070 nM and 4370 nM
MDA-MB-435
  GI50: 260 nM and 753 nM
  TGI: 1230 nM and 3620 nM
TK-10 renal
  GI50: 419 nM and 649 nM
  TGI: 1370 nM and 2880 nM
MDA-MB-231 breast
  GI50: 215 nM and 317 nM
  TGI: 1050 nM and 1240 nM
NCI/ADR-RES ovarian
  GI50: 387 nM and 1030 nM
  TGI: 2150 nM and 4540 nM
SN12C renal
  GI50: 262 nM and 515 nM
  TGI: 1260 nM and 3450 nM
MOLT-4 leukemia
  GI50: 350 nM and 703 nM
  TGI: 2020 nM and 4450 nM
LOX IMVI melanoma
  GI50: 178 nM and 336 nM
  TGI: 973 nM and 1160 nM
A549 NSCLC
  GI50: 377 nM and 1310 nM
  TGI: 1550 nM and 3790 nM
OVCAR-4 ovarian
  GI50: 171 nM and 479 nM
  TGI: 1640 nM and 4320 nM
SNB-75 CNS
  GI50: 377 nM and 1020 nM
  TGI: 1660 nM and 3030 nM
HOP-62 NSCLC
  GI50: 413 nM and 849 nM
  TGI: 1530 nM and 3730 nM
CCRF-CEM leukemia
  GI50: 618 nM and 1650 nM
  TGI: 5210 nM and 5630 nM
HCT-15 colon
  GI50: 313 nM and 501 nM
  TGI: 1270 nM and 3420 nM
MALME-3M melanoma
  GI50: 474 nM
  TGI: 2860 nM
HCT-116 colon
  GI50: 235 nM and 464 nM
  TGI: 1050 nM and 3430 nM
OVCAR-3 ovarian
  GI50: 785 nM and 1360 nM
  TGI: 2070 nM and 4200 nM
PC-3 prostate
  GI50: 1140 nM and 2190 nM
  TGI: 3200 nM and 5590 nM
786-0 renal
  GI50: 428 nM and 903 nM
  TGI: 1690 nM and 4100 nM
HCC-2998 colon
  GI50: 579 nM and 1380 nM
  TGI: 1860 nM and 4050 nM
SR leukemia
  GI50: 447 nM and 383 nM
  TGI: 2110 nM and 1980 nM
CAKI-1 renal
  GI50: 274 nM and 388 nM
  TGI: 1090 nM and 1820 nM
SF-268 CNS
  GI50: 474 nM and 730 nM
  TGI: 2060 nM and 4270 nM
HS 578T breast
  GI50: 364 nM and 544 nM
  TGI: 2520 nM
BT-549 breast
  GI50: 1150 nM and 2570 nM
  TGI: 2450 nM and 5190 nM
U251 CNS
  GI50: 473 nM and 1220 nM
  TGI: 1680 nM and 3940 nM
RXF 393 renal
  GI50: 224 nM and 530 nM
  TGI: 972 nM and 2210 nM
NCI-H460 lung
  GI50: 763 nM
  TGI: 4070 nM
OVCAR-8 ovarian
  GI50: 367 nM and 1080 nM
  TGI: 1460 nM and 3750 nM
RPMI-8226 leukemia
  GI50: 627 nM and 1150 nM
  TGI: 3010 nM and 4260 nM
HOP-92 NSCLC
  GI50: 104 nM and 306 nM
  TGI: 785 nM and 2030 nM
MCF7 breast
  GI50: 720 nM and 1290 nM
  TGI: 2170 nM and 4420 nM
